The values that follow come from patent US20230406856A1, “SUBSTITUTED PYRROLO [2, 3-b] PYRIDINE AND PYRAZOLO [3, 4-b] PYRIDINE DERIVATIVES AS PROTEIN KINASE INHIBITORS” (Fochon Biosciences, Ltd., priority 2020, published 2023).

The term pIC50 denotes the IC50 on a negative log10 scale, so that one unit is a factor of ten. Broadly, the AUC(0-t) is exposure summed from dosing to a finite time, without extrapolation to infinity. A high value points to more exposure. One may read the half-life as how long it takes for the measured level to halve. A lower half-life goes with rapid decline.

pIC50: −log10 of the molar value.

One data set deals with DOHH2 cells. Description: Cell proliferation assay in DOHH2 cells (MTS). In kind it is cell-based. The settings on record: Homo sapiens, DOHH-2, inhibition of DOHH2 cell proliferation, 120 h incubation. As to the method: To investigate whether a compound is able to inhibit the activity of BTK in cells, a mechanism-based assay using DOHH2 (DSMZ catalog #: ACC47) cell was developed. In this assay, inhibition of BTK was detected by the inhibition of DOHH2 cells proliferation. Cells were collected and plated onto 96-well plates at the optimized cell density (5000 cells/well). Plates were incubated at 37° C., with 5% CO2 for 4h. Compounds were serially diluted and added to the plates with the final concentrations as 10000, 3333.3, 1111.1, 370.4, 123.5, 41.2, 13.7, 4.6 and 1.5 nM. Plates were incubated at 37° C., with 5% CO2 for 120 h. An aliquot of 20 μL MTS/100 μL medium mixture solution were added to each well and the plates were incubated for exactly 2 h. The reaction was stopped by adding 25 μL 10% SDS to each well. The absorbance was measured by a microplate reader at 490 nm and 650 nm (reference wavelength). IC50 was calculated using GraphPad Prism 5.0.

Data set [1] can be described thus: Pharmacokinetics in male Beagle dogs, single oral gavage. In kind it is in vivo. On the procedure: The purpose of this study was to determine the pharmacokinetics of Example 1 in male Beagle dogs (Supplied by Marshall Bioresources, Beijing, China).
Animals were administered with Example 1 and Reference Compound 1 by single oral gavage (PO) administration at 3 mg/kg and 5 mg/kg, respectively, which was formulated in 10% DMSO (Sigma, Batch #STBJ2353): 60% PEG400 (PanReac AppliChem, Batch #1480132): 30% water at 5 mg/mL as a solution. Blood samples were collected at predose, 0.083, 0.25, 0.5, 1, 2, 4, 8, 12 and 24 hours post-dose. Concentrations of Example 1 and Reference Compound 1 in plasma were determined by LC/MS/MS (LC: Waters; MS: API4000).

The target in the next data set is BTK (C481S) (Homo sapiens (Human), UniProt Q06187, C481S). Nature of the data set: Kinase assay of BTK (C481S), [33P]-ATP filter-binding, at Reaction Biology Corporation. It counts as biochemical. The settings on record: 10 μM ATP, 6 nM BTK (C481S), pEY substrate, 20 min pre-incubation, 120 min reaction. On the procedure: The kinase activity of BTK (C481S) was assayed at Reaction Biology Corporation. The substrate in the BTK (C481S) reaction, pEY (poly[Glu:Tyr] (4:1)) (Sigma, Cat. #P7244-250MG), was prepared in fresh reaction buffer (20 mM Hepes (pH 7.5), 10 mM MgCl2, 1 mM EGTA, 0.02% Brij35, 0.02 mg/ml BSA, 0.1 mM Na3VO4, 2 mM DTT, 1% DMSO). BTK(C481S) (SignalChem, Cat. #B10-12CH) was delivered into the substrate solution and mixed gently. The final concentrations of BTK (C481S) and the substrate in the reaction mixture were 6 nM and 0.2 mg/ml, respectively. Compounds were tested in 10-point concentration/response mode with 3-fold serial dilution steps starting at 1 μM.
BTK (C481S), sequence (Q06187 whole entry C481S): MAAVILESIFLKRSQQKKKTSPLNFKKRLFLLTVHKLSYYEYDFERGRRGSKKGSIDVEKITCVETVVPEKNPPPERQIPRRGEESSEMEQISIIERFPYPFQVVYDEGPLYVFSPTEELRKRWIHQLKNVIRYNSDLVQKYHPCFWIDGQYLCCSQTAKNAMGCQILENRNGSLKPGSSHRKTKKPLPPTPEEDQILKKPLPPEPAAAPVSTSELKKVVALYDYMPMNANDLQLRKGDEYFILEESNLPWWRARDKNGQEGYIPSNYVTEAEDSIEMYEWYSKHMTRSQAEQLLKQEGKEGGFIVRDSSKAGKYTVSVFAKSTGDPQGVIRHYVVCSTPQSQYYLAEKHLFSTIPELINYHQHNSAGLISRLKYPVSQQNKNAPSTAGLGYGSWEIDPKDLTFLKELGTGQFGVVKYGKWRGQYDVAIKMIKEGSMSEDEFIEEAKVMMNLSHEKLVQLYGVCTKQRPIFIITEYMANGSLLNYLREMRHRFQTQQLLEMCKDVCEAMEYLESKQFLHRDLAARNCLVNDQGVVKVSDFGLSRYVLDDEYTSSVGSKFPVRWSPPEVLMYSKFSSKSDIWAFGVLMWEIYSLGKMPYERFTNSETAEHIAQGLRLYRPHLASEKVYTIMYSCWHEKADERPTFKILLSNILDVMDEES
Compounds in 100% DMSO were delivered into the kinase reaction mixture by acoustic liquid delivery technology (Echo550; nanoliter range) and incubated for 20 min at room temperature. 10 μM [^33P]-ATP (ATP: Sigma, Cat #: A7699; [^33P]-ATP: Hartmann Analytic, Cat #: SCF-301-12) was delivered into the reaction mixture to initiate the reaction. The mixture was incubated for 120 min at room temperature. Radioactivity was detected utilizing a proprietary filter-binding method. Kinase activity data were expressed as the percent remaining kinase activity in test samples compared to vehicle (DMSO) reactions. IC50 values were obtained using GraphPad Prism software.

A short description of data set [2]: Pharmacokinetics in male Sprague-Dawley rats, single oral gavage. In kind it is in vivo. The settings on record: 5 mg/kg; for AUC(0-t) / half-life: rat, plasma. As to the method:
The purpose of this study was to determine the pharmacokinetics of Example 1 and Example 2 in male Sprague-Dawley rats (Supplied by Beijing Vital River Laboratory Animal Technology Co., Ltd.).
Animals were administered with Example 1 and Example 2 by single oral gavage (PO) administration at 5 mg/kg, respectively, which was formulated in 10% DMSO (Sigma, Batch #STBJ2353): 60% PEG400 (PanReac AppliChem, Batch #1480132): 30% water at 2 mg/mL as a solution. Blood samples were collected at predose, 0.083, 0.25, 0.5, 1, 2, 4, 8, 12 and 24 hours post-dose. Concentrations of Example 1 and Example 2 in plasma were determined by LC/MS/MS (LC: Waters UPLC; MS: API4000).

For `CS(=O)(=O)NC[C@@H]1CC[C@@H](Nc2c(F)cnc3[nH]cc(C(=O)c4ccc(Oc5c(F)cccc5F)cc4F)c23)CO1` [Example 1, N-(((2S,5R)-5-((3-(4-(2,6-difluorophenoxy)-2-fluorobenzoyl)-5-fluoro-1H-pyrrolo[2,3-b]pyridin-4-yl)amino)tetrahydro-2H-pyran-2-yl)methyl)methanesulfonamide], the figures for the pIC50 in the data set on DOHH2 cells and on BTK (C481S) were 9.00 and 8.82, respectively. Further, the values for the F in data set [1] (3 mg/kg) and in data set [2] were 26.0% and 24.9%, respectively. Besides, the AUC(0-t) is 3820 ng·h/mL in data set [1] (dog, 3 mg/kg, plasma) and 4950 ng·h/mL in data set [2]. The half-life is 15.6 h in data set [1] (dog, 3 mg/kg, plasma) and 3.69 h in data set [2].
Take `CS(=O)(=O)NC[C@@H]1CC[C@@H](Nc2c(F)cnc3[nH]cc(C(=O)c4ccc(Oc5ccccc5F)cc4F)c23)CO1` [Example 2, N-(((2S,5R)-5-((5-fluoro-3-(2-fluoro-4-(2-fluorophenoxy)benzoyl)-1H-pyrrolo[2,3-b]pyridin-4-yl)amino)tetrahydro-2H-pyran-2-yl)methyl)methanesulfonamide]: the pIC50 in the data set with DOHH2 cells is 7.57. This compound also showed a pIC50 on BTK (C481S) of 9.18. Also, in data set [2], the F was found to be 31%, the AUC(0-t) amounted to 8340 ng·h/mL and the half-life was 3.08 h.
Take `CCS(=O)(=O)NC[C@@H]1CC[C@@H](Nc2c(F)cnc3[nH]cc(C(=O)c4ccc(Oc5ccccc5F)cc4F)c23)CO1` [Example 3, N-(((2S,5R)-5-((5-fluoro-3-(2-fluoro-4-(2-fluorophenoxy)benzoyl)-1H-pyrrolo[2,3-b]pyridin-4-yl)amino)tetrahydro-2H-pyran-2-yl)methyl)ethanesulfonamide]: the pIC50 in the data set on DOHH2 cells is 9.00.
Compound `CCS(=O)(=O)NC[C@@H]1CC[C@@H](Nc2c(F)cnc3[nH]cc(C(=O)c4ccc(Oc5c(F)cccc5F)cc4F)c23)CO1` [Example 6, N-(((2S,5R)-5-((3-(4-(2,6-difluorophenoxy)-2-fluorobenzoyl)-5-fluoro-1H-pyrrolo[2,3-b]pyridin-4-yl)amino)tetrahydro-2H-pyran-2-yl)methyl)ethanesulfonamide] gave a pIC50 in the data set on DOHH2 cells of 9.00.
As for `O=C(c1ccc(Oc2c(F)cccc2F)cc1F)c1c[nH]c2ncc(F)c(N[C@@H]3CC[C@@H](CNS(=O)(=O)C4CC4)OC3)c12` [Example 8, N-(((2S,5R)-5-((3-(4-(2,6-difluorophenoxy)-2-fluorobenzoyl)-5-fluoro-1H-pyrrolo[2,3-b]pyridin-4-yl)amino)tetrahydro-2H-pyran-2-yl)methyl)cyclopropanesulfonamide], the pIC50 in the data set with DOHH2 cells was 9.00.
For the compound `CCOc1cnc2[nH]cc(C(=O)c3ccc(Oc4ccccc4F)cc3F)c2c1N[C@@H]1CC[C@@H](CO)OC1` [Reference Compound 1, (5-ethoxy-4-(((3R,6S)-6-(hydroxymethyl)tetrahydro-2H-pyran-3-yl)amino)-JH-pyrrolo[2,3-b]pyridin-3-yl)(2-fluoro-4-(2-fluorophenoxy)phenyl)methanone, reference compound], the F in data set [1] (5 mg/kg) is on record as 9.82%. In data set [1] (5 mg/kg, plasma), this compound showed an AUClast of 200 ng·h/mL and a T1/2 of 3.39 h.
